Values of other authors as cited in US20170245500A1 (priority 2014, published 2017).

Settings: some conditions, e.g. high temperature or higher soil pH

CCOP(=O)(SC(C)CC)N1CCSC1=O (stereo not shown) [fosthiazate]
time in which the pesticide can be degraded in soil: under ten
